Measurements from patent US11957769B2, “Polyhydroxy fullerene sunscreen active agents and compositions” (THE CLEVELAND CLINIC FOUNDATION, priority 2016, dated 2024).

What was measured:
[1] = cited from earlier work
Nrf2 pathway = conditions: Ye et al. 2014; cited from earlier work
[2] = Photolability, comparison of sunscreen actives (Table 1); type: physicochemical; conditions: Table 1 comparison of actives
hairless SKH-1 mice = test: UV damage in skin of hairless SKH-1 mice after topical PHF
Experimental: PHF (obtained from MER Corp.) was dissolved in water and applied on the right flank (2 cm×1 cm) of the dorsal region of hairless SKH-1 mice. The left flank (2 cm×1 cm) of the same mouse was used as a control with topical application of deionized water. The topical applications were allowed to dry for 15 minutes followed by UV exposure (80 mJ/cm^2; 90% UVB and 10% UVA). […] Mice were euthanized 48 hours post-UV exposure, and the skin was harvested for histological analysis or immunofluorescent staining.

[3] = cited from earlier work; remark: listed apart in the source
[4] = UV-Visible absorbance spectra of PHF solution vs commercial SPF60 sunscreen; type: physicochemical; conditions: PHF solution 0.5 mg/mL in 25% glycerol
Experimental: The inventors discovered that PHF absorbs UV more effectively than commercial sunscreens. For initial comparisons (FIG. 2), the UV-Vis absorption of PHF solution at 0.5 mg/mL (prepared in 25% glycerol) was compared with Neutrogena SPF 60 (4.9% Titanium dioxide and 4.7% Zinc oxide) sunscreen at 5 mg/mL (in de-ionized water). The total concentration of AI in the commercial sunscreen suspension was equal to that of PHF (0.5 mg/mL) solution. PHF is a broad spectrum UV absorber, as its critical wavelength of 381 nm and UVA/UVB ratio of 1.6 exceeds the FDA limit of 370 nm and 0.91, respectively. The absorbance of PHF is 2.5-1.9 times higher in the UVB region (280-320 nm) and 1.9-1.5 times higher in the UVA region (320-400 nm) than SPF60 sunscreen. This high UV absorptive ability of PHF (for preventing direct damage from UVB and UVA) becomes even more important when combined with other potential advantages of PHF (preventing indirect free radical mediated damage) over current sunscreen AIs, as summarized in Table 1 and FIG. 3.

skin sections = test: Blinded scoring of erythema and edema of UVB-exposed skin sections in a preclinical model; type: in vivo; conditions: UVB 120 mJ/cm^2, 48 hours, blinded panel
Experimental: PHF is a single, multifunctional active that replaces multiple actives of current sunscreen formulations. […] The concentration of PHF was optimized and the minimum concentration of PHF that prevents symptoms of sunburn (erythema and edema) was determined. In a preclinical model, different skin sections were applied with PHF formulation, SPF60 commercial sunscreen, vehicle (without PHF) samples and control (no application). All skin sections were exposed to UVB at 120 mJ/cm^2 dose. The skin sections were monitored for erythema (redness) and edema (swelling) at 24, 48 and 72 hours. Maximum erythema is usually observed at 48 hours. The photographs of skin sections at 48 hours were scored by a panel consisting of two dermatologists and two non-dermatologists. The panel was blinded to the identity of the samples. The result of blinded scoring study is plotted in FIG. 5. […] [table]

[5] = 48 hours post-UV exposure, vs water control flank

For polyhydroxy fullerene [PHF], the ROS susceptibility ([1]; Table 1 comparison of actives) is given as “Catalytically”, the “neutralization of free radicals” value ([1]; superoxide, nitric oxide, etc., Yin et al. 2009) is given as “can catalytically neutralize different types of free radicals” and the Nrf2 pathway activation (Nrf2 pathway) is given as “activates the Nrf2 pathway”. For the same substance, the Photolabile [2] was “No”, the “erythema (sunburn)” value (hairless SKH-1 mice; 24 hours after UV exposure (80 mJ/cm^2; 90% UVB and 10% UVA), topical PHF in water vs water control flank) was “did not show any signs of erythema” and the “DNA photoproducts (cyclopyrimidine dimers, CPD)” value (hairless SKH-1 mice; [5]) was “fewer DNA photoproducts”. The “epidermal cell death (dyskeratotic sunburn cells), histology” value (hairless SKH-1 mice; [5]) was “marked reduction in epidermal cell death”, the “recovery of proliferation (Ki-67)” value (hairless SKH-1 mice; [5]) was “faster recovery of proliferation” and the “free radical generation on UV absorption” value ([3]; Krishna et al. 2008) was “without generating free radicals”. For the same substance, the “Potential ROS generation” value ([3]; Table 1 comparison of actives) was “None”, the UVA/UVB ratio ([4]; FDA limit 0.91) was 1.6 and the critical wavelength ([4]; FDA limit 370 nm) was 381 nm. For the same substance, the “erythema and edema score vs commercial SPF60 sunscreen” value (skin sections) was “on par with commercial SPF60 sunscreen” and the “erythema and edema score vs control and vehicle only” value (skin sections; α=0.01) was “reduced erythema and edema significantly”.
